The results in this text go back to patent US9204653B2, “5-fluoro pyrimidine derivatives” (DOW AGROSCIENCES LLC, priority 2008, dated 2015).

In the assay the test system is Mycosphaerella graminicola; Anamorph: Septoria tritici; Bayer Code SEPTTR. Description: Leaf blotch of wheat, foliar fungicide treatment, one day protectant (1DP) or three day curative (3DC). It counts as in vivo, Septoria tritici on wheat plants (variety Yuma). Conditions: Zymoseptoria tritici, percent disease control rating.
The mark [1] stands for this setting: 24 h, one day protectant (1DP), read-out: SETTTR 1DP 25 ppm.
[2] abbreviates: 24 h, one day protectant (1DP), read-out: SEPTTR 1DP 100 ppm.
The mark [3] stands for this setting: 72 h, three day curative (3DC), read-out: SEPTTR 3DC 25 ppm.
[4] abbreviates: 72 h, three day curative (3DC), read-out: SEPTTR 3DC 100 ppm.

Like-named read-outs stand apart in the source and are kept apart here.

For `CN(C)/C=N/c1nc(OS(=O)(=O)c2cccs2)ncc1F` [Compound 89], the pest or weed control at 25 ppm under setting [1] is 76 to 100% and the pest or weed control at 25 ppm under setting [3] is 76 to 100%. The pest or weed control at 100 ppm fell in the range of 76 to 100% under setting [2] and 76 to 100% under setting [4].
Take `O=[N+]([O-])c1ccccc1SNc1nc(OCc2cc(Cl)cc(Cl)c2)ncc1F` [Compound 90]: the pest or weed control at 25 ppm by setting is: under setting [1], 76 to 100%; under setting [3], 26 to 50%. Also, the pest or weed control at 100 ppm fell in the range of 76 to 100% under setting [2] and 51 to 75% under setting [4].
For the molecule `Nc1nc(OCc2cc(F)c(F)c(F)c2)ncc1F` [Compound 93], the pest or weed control at 25 ppm lay in the range of 76 to 100% under setting [1] and 76 to 100% under setting [3]. The pest or weed control at 100 ppm reads like this: under setting [2], 76 to 100%; under setting [4], 76 to 100%.
Take `CCC(C)C(=O)Oc1ncc(F)c(/N=C/N(C)C)n1` (stereo not drawn) [Compound 94]: the pest or weed control at 25 ppm under setting [1] fell in the range of 76 to 100% and the pest or weed control at 25 ppm under setting [3] lay within 76 to 100%. The pest or weed control at 100 ppm by setting is: under setting [2], 76 to 100%; under setting [4], 76 to 100%.
In the case of `CC(C)(C)Oc1ccc(COc2ncc(F)c(N)n2)cc1` [Compound 95], the pest or weed control at 25 ppm runs as follows: under setting [1], 76 to 100%; under setting [3], 76 to 100%. Besides, the pest or weed control at 100 ppm reads like this: under setting [2], 76 to 100%; under setting [4], 76 to 100%.
As for `CNC(=O)/C(=N/OC)c1ccccc1COc1ncc(F)c(N)n1` [Compound 96], the pest or weed control at 25 ppm by setting is: under setting [1], 0 to 25%; under setting [3], 0 to 25%. Moreover, the pest or weed control at 100 ppm fell in the range of 0 to 25% under setting [2] and 0 to 25% under setting [4].
Regarding `CCC(/C=N/Nc1nc(OCc2cccc(OC)c2)ncc1F)CC` [Compound 97], the pest or weed control at 25 ppm reads like this: under setting [1], 0 to 25%; under setting [3], 0 to 25%. For the same molecule, the pest or weed control at 100 ppm under setting [2] was in the range of 51 to 75% and the pest or weed control at 100 ppm under setting [4] lay within 0 to 25%.
On to `O=C(NCc1ccccc1F)Nc1nc(OCc2cccc(F)c2)ncc1F` [Compound 98], for which the pest or weed control at 25 ppm was 0 to 25% under setting [1] and 0 to 25% under setting [3]. For the same molecule, the pest or weed control at 100 ppm is, setting by setting: under setting [2], 0 to 25%; under setting [4], 0 to 25%.
As for `CCCCCCOc1ncc(F)c(NCO)n1` [Compound 99], the pest or weed control at 25 ppm under setting [1] lay within 0 to 25% and the pest or weed control at 25 ppm under setting [3] is 0 to 25%. The pest or weed control at 100 ppm is, setting by setting: under setting [2], 76 to 100%; under setting [4], 51 to 75%.
In the case of `Nc1nc(SCc2ccc(F)cc2)ncc1F` [Compound 100], the pest or weed control at 25 ppm reads like this: under setting [1], 0 to 25%; under setting [3], 0 to 25%. In addition, the pest or weed control at 100 ppm by setting is: under setting [2], 0 to 25%; under setting [4], 0 to 25%.
`CC(C)(C)OC(=O)Nc1nc(OCc2ccc(F)cc2)ncc1F` [Compound 101]: the pest or weed control at 25 ppm by setting is: under setting [1], 51 to 75%; under setting [3], 0 to 25%. Further, the pest or weed control at 100 ppm runs as follows: under setting [2], 51 to 75%; under setting [4], 0 to 25%.
Take `Cc1ccc(COc2ncc(F)c(N(N)c3ccccc3)n2)cc1` [Compound 102]: the pest or weed control at 25 ppm by setting is: under setting [1], 0 to 25%; under setting [3], 0 to 25%. Also, the pest or weed control at 100 ppm reads like this: under setting [2], 0 to 25%; under setting [4], 26 to 50%.
As for `C[C@H](Oc1ncc(F)c(N)n1)c1ccc(Br)cc1` [Compound 103], the pest or weed control at 25 ppm was in the range of 76 to 100% under setting [1] and 51 to 75% under setting [3]. The pest or weed control at 100 ppm is, setting by setting: under setting [2], 76 to 100%; under setting [4], 76 to 100%.
Regarding `Nc1nc(OCc2nc3ccccc3s2)ncc1F` [Compound 104], the pest or weed control at 25 ppm lay in the range of 76 to 100% under setting [1] and 76 to 100% under setting [3]. For the same molecule, the pest or weed control at 100 ppm under setting [2] is 76 to 100% and the pest or weed control at 100 ppm under setting [4] fell in the range of 76 to 100%.
As for `Fc1cnc(OCc2ccccc2)nc1N/N=C/C1CC1` [Compound 105], the pest or weed control at 25 ppm reads like this: under setting [1], 0 to 25%; under setting [3], 0 to 25%. Also, the pest or weed control at 100 ppm runs as follows: under setting [2], 0 to 25%; under setting [4], 0 to 25%.
For the molecule `Nc1nc(OCCCC2CCCC2)ncc1F` [Compound 106], the pest or weed control at 25 ppm under setting [1] was in the range of 0 to 25% and the pest or weed control at 25 ppm under setting [3] fell in the range of 0 to 25%. Besides, the pest or weed control at 100 ppm lay within 0 to 25% under setting [2] and 26 to 50% under setting [4].
For the molecule `CC(=O)Nc1nc(OCc2cccc(F)c2)ncc1F` [Compound 107], the pest or weed control at 25 ppm was in the range of 76 to 100% under setting [1] and 76 to 100% under setting [3]. Also, the pest or weed control at 100 ppm lay in the range of 76 to 100% under setting [2] and 76 to 100% under setting [4].
As to `Cn1ccc(COc2ncc(F)c(/N=C/N3CCOCC3)n2)n1` [Compound 108], the pest or weed control at 25 ppm is 76 to 100% under setting [1] and 76 to 100% under setting [3]. The pest or weed control at 100 ppm was in the range of 76 to 100% under setting [2] and 76 to 100% under setting [4].
Turning to `COc1cccc(COc2ncc(F)c(N(N)C3CCCCC3)n2)c1` [Compound 111], the pest or weed control at 25 ppm is, setting by setting: under setting [1], 0 to 25%; under setting [3], 0 to 25%. Further, the pest or weed control at 100 ppm lay in the range of 0 to 25% under setting [2] and 0 to 25% under setting [4].
Turning to `CN(C)/C=N/c1nc(OC(=O)OCc2ccccc2)ncc1F` [Compound 112], the pest or weed control at 25 ppm under setting [1] is 76 to 100% and the pest or weed control at 25 ppm under setting [3] fell in the range of 76 to 100%. In addition, the pest or weed control at 100 ppm is, setting by setting: under setting [2], 76 to 100%; under setting [4], 76 to 100%.
As to `COc1ccc(Oc2ncc(F)c(NCO)n2)cc1` [Compound 113], the pest or weed control at 25 ppm was 51 to 75% under setting [1] and 0 to 25% under setting [3]. Also, the pest or weed control at 100 ppm under setting [2] lay within 76 to 100% and the pest or weed control at 100 ppm under setting [4] is 26 to 50%.
Turning to `CCCNC(=O)Nc1nc(OCc2ccn(C)n2)ncc1F` [Compound 114], the pest or weed control at 25 ppm runs as follows: under setting [1], 0 to 25%; under setting [3], 0 to 25%. The pest or weed control at 100 ppm was 0 to 25% under setting [2] and 0 to 25% under setting [4].
For the molecule `Fc1cnc(OCc2ccccc2)nc1-n1ccnc1` [Compound 115], the pest or weed control at 25 ppm reads like this: under setting [1], 76 to 100%; under setting [3], 76 to 100%. Further, the pest or weed control at 100 ppm was 76 to 100% under setting [2] and 76 to 100% under setting [4].
Consider `O=C(NCc1ccccc1F)Nc1nc(OCc2cccs2)ncc1F` [Compound 116], for which the pest or weed control at 25 ppm runs as follows: under setting [1], 0 to 25%; under setting [3], 0 to 25%. Further, the pest or weed control at 100 ppm by setting is: under setting [2], 0 to 25%; under setting [4], 0 to 25%.
Regarding `O=[N+]([O-])c1ccccc1SNc1nc(OCc2cccc(F)c2)ncc1F` [Compound 117], the pest or weed control at 25 ppm is 26 to 50% under setting [1] and 26 to 50% under setting [3]. Moreover, the pest or weed control at 100 ppm is, setting by setting: under setting [2], 51 to 75%; under setting [4], 26 to 50%.
Regarding `CCCNC(=S)Nc1nc(OCc2cccc(OC)c2)ncc1F` [Compound 119], the pest or weed control at 25 ppm fell in the range of 26 to 50% under setting [1] and 51 to 75% under setting [3]. Further, the pest or weed control at 100 ppm under setting [2] is 76 to 100% and the pest or weed control at 100 ppm under setting [4] lay within 76 to 100%.
Regarding `Nc1nc(OCc2cccc3ccccc23)ncc1F` [Compound 120], the pest or weed control at 25 ppm is 76 to 100% under setting [1] and 76 to 100% under setting [3]. Moreover, the pest or weed control at 100 ppm under setting [2] is 76 to 100% and the pest or weed control at 100 ppm under setting [4] was in the range of 76 to 100%.
Take `CC(Oc1ncc(F)c(NSc2ccccc2[N+](=O)[O-])n1)c1ccc(F)cc1` (stereo not drawn) [Compound 126]: the pest or weed control at 25 ppm reads like this: under setting [1], 76 to 100%; under setting [3], 76 to 100%. The pest or weed control at 100 ppm runs as follows: under setting [2], 76 to 100%; under setting [4], 76 to 100%.
With `Nc1nc(OCCc2cccc(C(F)(F)F)c2)ncc1F` [Compound 129], the pest or weed control at 25 ppm lay within 26 to 50% under setting [1] and 76 to 100% under setting [3]. Besides, the pest or weed control at 100 ppm by setting is: under setting [2], 76 to 100%; under setting [4], 76 to 100%.
Turning to `CN(C)/C=N/c1nc(OC(=O)C(C)(C)C)ncc1F` [Compound 130], the pest or weed control at 25 ppm was 76 to 100% under setting [1] and 76 to 100% under setting [3]. Moreover, the pest or weed control at 100 ppm reads like this: under setting [2], 76 to 100%; under setting [4], 76 to 100%.
Turning to `CN(C)/C=N/c1nc(OS(C)(=O)=O)ncc1F` [Compound 131], the pest or weed control at 25 ppm reads like this: under setting [1], 26 to 50%; under setting [3], 26 to 50%. Besides, the pest or weed control at 100 ppm under setting [2] fell in the range of 51 to 75% and the pest or weed control at 100 ppm under setting [4] was in the range of 76 to 100%.
Turning to `Cc1nn(C)c2sc(COc3ncc(F)c(N)n3)cc12` [Compound 132], the pest or weed control at 25 ppm by setting is: under setting [1], 76 to 100%; under setting [3], 76 to 100%. Moreover, the pest or weed control at 100 ppm was in the range of 76 to 100% under setting [2] and 76 to 100% under setting [4].
For the molecule `Nc1nc(OCc2cccc(CO)c2)ncc1F` [Compound 133], the pest or weed control at 25 ppm reads like this: under setting [1], 51 to 75%; under setting [3], 51 to 75%. Besides, the pest or weed control at 100 ppm lay in the range of 76 to 100% under setting [2] and 76 to 100% under setting [4].
For the molecule `CCOC(=O)COC(=O)Nc1nc(OCc2ccccc2)ncc1F` [Compound 134], the pest or weed control at 25 ppm runs as follows: under setting [1], 0 to 25%; under setting [3], 51 to 75%. The pest or weed control at 100 ppm reads like this: under setting [2], 51 to 75%; under setting [4], 76 to 100%.
Regarding `Nc1nc(OCc2ccc(OC(F)F)cc2)ncc1F` [Compound 136], the pest or weed control at 25 ppm runs as follows: under setting [1], 76 to 100%; under setting [3], 76 to 100%. Further, the pest or weed control at 100 ppm reads like this: under setting [2], 76 to 100%; under setting [4], 76 to 100%.
Regarding `ONc1nc(OCc2ccc(F)cc2)ncc1F` [Compound 138], the pest or weed control at 25 ppm was in the range of 76 to 100% under setting [1] and 76 to 100% under setting [3]. Further, the pest or weed control at 100 ppm by setting is: under setting [2], 76 to 100%; under setting [4], 76 to 100%.
